± gives the expanded uncertainty stated by the source.
Settings: Hot wire method

FC(F)(F)/C=C/Cl [(E)-1-chloro-3,3,3-trifluoroprop-1-ene]
Settings | thermal conductivity [W/m/K]
283.61 K, 46184 kPa, Liquid | 0.1051 ± 0.0033
283.62 K, 194 kPa, Liquid | 0.08723 ± 0.0028
283.64 K, 39507 kPa, Liquid | 0.1031 ± 0.0037
283.71 K, 33240 kPa, Liquid | 0.1008 ± 0.0031
283.73 K, 64639 kPa, Liquid | 0.1101 ± 0.0037
283.76 K, 27097 kPa, Liquid | 0.09854 ± 0.0042
283.77 K, 55316 kPa, Liquid | 0.1077 ± 0.0038
283.82 K, 46190 kPa, Liquid | 0.1049 ± 0.0036
283.86 K, 39512 kPa, Liquid | 0.1027 ± 0.0045
283.93 K, 33245 kPa, Liquid | 0.1004 ± 0.0031
283.99 K, 27090 kPa, Liquid | 0.0982 ± 0.0034
301.07 K, 36400 kPa, Liquid | 0.09652 ± 0.0053
301.1 K, 25797 kPa, Liquid | 0.09286 ± 0.0055
301.12 K, 8081 kPa, Liquid | 0.08639 ± 0.017
301.14 K, 16454 kPa, Liquid | 0.08935 ± 0.013
301.14 K, 36402 kPa, Liquid | 0.09595 ± 0.015
301.16 K, 25808 kPa, Liquid | 0.09205 ± 0.016
301.18 K, 7827 kPa, Liquid | 0.08636 ± 0.0037
301.18 K, 8082 kPa, Liquid | 0.08488 ± 0.0056
301.18 K, 25511 kPa, Liquid | 0.09374 ± 0.021
301.2 K, 16447 kPa, Liquid | 0.08939 ± 0.015
301.24 K, 25515 kPa, Liquid | 0.09289 ± 0.011
301.25 K, 302 kPa, Liquid | 0.08142 ± 0.0067
301.25 K, 4078 kPa, Liquid | 0.08444 ± 0.0047
301.25 K, 7830 kPa, Liquid | 0.08532 ± 0.0054
301.27 K, 16013 kPa, Liquid | 0.08986 ± 0.015
301.31 K, 4086 kPa, Liquid | 0.08339 ± 0.0048
301.33 K, 303 kPa, Liquid | 0.08177 ± 0.0036
301.39 K, 62986 kPa, Liquid | 0.1067 ± 0.021
301.41 K, 56492 kPa, Liquid | 0.1055 ± 0.0053
301.42 K, 48436 kPa, Liquid | 0.1008 ± 0.007
301.43 K, 65550 kPa, Liquid | 0.1085 ± 0.026
301.44 K, 36396 kPa, Liquid | 0.09731 ± 0.0041
301.47 K, 62992 kPa, Liquid | 0.1061 ± 0.019
301.48 K, 42020 kPa, Liquid | 0.09884 ± 0.0035
301.49 K, 25801 kPa, Liquid | 0.09292 ± 0.0053
301.49 K, 56482 kPa, Liquid | 0.1049 ± 0.0032
301.5 K, 36232 kPa, Liquid | 0.09714 ± 0.0039
301.5 K, 48438 kPa, Liquid | 0.1006 ± 0.01
301.5 K, 65547 kPa, Liquid | 0.1082 ± 0.025
301.52 K, 47198 kPa, Liquid | 0.101 ± 0.0072
301.53 K, 8090 kPa, Liquid | 0.08523 ± 0.0093
301.53 K, 36388 kPa, Liquid | 0.09726 ± 0.0039
301.54 K, 16449 kPa, Liquid | 0.09014 ± 0.004
301.54 K, 20530 kPa, Liquid | 0.09027 ± 0.0071
301.55 K, 25503 kPa, Liquid | 0.09319 ± 0.0051
301.55 K, 30551 kPa, Liquid | 0.09454 ± 0.0037
301.56 K, 143 kPa, Gas | 0.01127 ± 0.00042
301.56 K, 145 kPa, Gas | 0.01102 ± 0.00042
301.56 K, 42014 kPa, Liquid | 0.09907 ± 0.003
301.57 K, 36234 kPa, Liquid | 0.09632 ± 0.0086
301.58 K, 25794 kPa, Liquid | 0.0925 ± 0.004
301.59 K, 122 kPa, Gas | 0.01123 ± 0.0004
301.59 K, 131 kPa, Gas | 0.01121 ± 0.0004
301.6 K, 7831 kPa, Liquid | 0.08616 ± 0.0062
301.6 K, 11892 kPa, Liquid | 0.08784 ± 0.0049
301.6 K, 47198 kPa, Liquid | 0.1006 ± 0.0035
301.61 K, 16007 kPa, Liquid | 0.08871 ± 0.0068
301.62 K, 8093 kPa, Liquid | 0.08518 ± 0.0028
301.63 K, 367 kPa, Liquid | 0.08213 ± 0.0044
301.63 K, 7868 kPa, Liquid | 0.08523 ± 0.0038
301.63 K, 16455 kPa, Liquid | 0.08833 ± 0.0033
301.63 K, 20523 kPa, Liquid | 0.09097 ± 0.0072
301.63 K, 30560 kPa, Liquid | 0.09455 ± 0.0037
301.65 K, 25502 kPa, Liquid | 0.09219 ± 0.0087
301.68 K, 4077 kPa, Liquid | 0.08414 ± 0.0043
301.69 K, 311 kPa, Liquid | 0.08156 ± 0.0027
301.69 K, 11881 kPa, Liquid | 0.08767 ± 0.0027
301.69 K, 16012 kPa, Liquid | 0.08885 ± 0.009
301.7 K, 7834 kPa, Liquid | 0.08567 ± 0.0026
301.72 K, 7864 kPa, Liquid | 0.08629 ± 0.0042
301.73 K, 363 kPa, Liquid | 0.08194 ± 0.0031
301.77 K, 4081 kPa, Liquid | 0.08378 ± 0.0044
301.78 K, 307 kPa, Liquid | 0.08197 ± 0.0027
301.79 K, 62991 kPa, Liquid | 0.1059 ± 0.0066
301.81 K, 65522 kPa, Liquid | 0.1076 ± 0.013
301.83 K, 48074 kPa, Liquid | 0.1002 ± 0.0061
301.88 K, 36387 kPa, Liquid | 0.09695 ± 0.003
301.89 K, 143 kPa, Gas | 0.01116 ± 0.00041
301.89 K, 62976 kPa, Liquid | 0.1058 ± 0.0068
301.9 K, 141 kPa, Gas | 0.01138 ± 0.00042
301.9 K, 65529 kPa, Liquid | 0.1065 ± 0.0073
301.91 K, 122 kPa, Gas | 0.01121 ± 0.0004
301.91 K, 42002 kPa, Liquid | 0.09897 ± 0.003
301.92 K, 130 kPa, Gas | 0.01129 ± 0.0004
301.92 K, 36223 kPa, Liquid | 0.09724 ± 0.003
301.92 K, 56462 kPa, Liquid | 0.1042 ± 0.0042
301.93 K, 47191 kPa, Liquid | 0.1005 ± 0.0034
301.94 K, 25799 kPa, Liquid | 0.09347 ± 0.0045
301.94 K, 48073 kPa, Liquid | 0.1008 ± 0.0034
301.94 K, 48421 kPa, Liquid | 0.1013 ± 0.0036
301.98 K, 30546 kPa, Liquid | 0.09459 ± 0.0031
301.99 K, 36387 kPa, Liquid | 0.09693 ± 0.0042
302 K, 16444 kPa, Liquid | 0.08896 ± 0.0036
302.01 K, 8085 kPa, Liquid | 0.08503 ± 0.0032
302.01 K, 20519 kPa, Liquid | 0.09088 ± 0.0029
302.01 K, 25500 kPa, Liquid | 0.09318 ± 0.0035
302.02 K, 41998 kPa, Liquid | 0.09906 ± 0.0033
302.03 K, 47196 kPa, Liquid | 0.1005 ± 0.0031
302.04 K, 36232 kPa, Liquid | 0.09691 ± 0.0069
302.05 K, 25799 kPa, Liquid | 0.0933 ± 0.0075
302.07 K, 11891 kPa, Liquid | 0.08755 ± 0.0049
302.07 K, 16014 kPa, Liquid | 0.08895 ± 0.0035
302.08 K, 7823 kPa, Liquid | 0.08555 ± 0.0046
302.09 K, 30563 kPa, Liquid | 0.0947 ± 0.0029
302.12 K, 7862 kPa, Liquid | 0.08568 ± 0.0045
302.12 K, 16448 kPa, Liquid | 0.08904 ± 0.0095
302.12 K, 20518 kPa, Liquid | 0.09092 ± 0.0028
302.12 K, 25501 kPa, Liquid | 0.09247 ± 0.0055
302.13 K, 365 kPa, Liquid | 0.08182 ± 0.0052
302.13 K, 8079 kPa, Liquid | 0.08538 ± 0.0035
302.16 K, 4079 kPa, Liquid | 0.0839 ± 0.0045
302.19 K, 312 kPa, Liquid | 0.08161 ± 0.0029
302.19 K, 11879 kPa, Liquid | 0.08708 ± 0.0044
302.19 K, 16009 kPa, Liquid | 0.08853 ± 0.0034
302.2 K, 7820 kPa, Liquid | 0.08528 ± 0.0028
302.24 K, 7854 kPa, Liquid | 0.08541 ± 0.0049
302.25 K, 142 kPa, Gas | 0.01122 ± 0.0004
302.25 K, 62977 kPa, Liquid | 0.106 ± 0.0033
302.26 K, 139 kPa, Gas | 0.01122 ± 0.0004
302.26 K, 383 kPa, Liquid | 0.08132 ± 0.0058
302.27 K, 65494 kPa, Liquid | 0.1068 ± 0.0063
302.28 K, 122 kPa, Gas | 0.01119 ± 0.0004
302.28 K, 130 kPa, Gas | 0.01138 ± 0.00041
302.28 K, 56452 kPa, Liquid | 0.1046 ± 0.0032
302.29 K, 4074 kPa, Liquid | 0.08366 ± 0.0028
302.3 K, 48061 kPa, Liquid | 0.1009 ± 0.0069
302.31 K, 299 kPa, Liquid | 0.08152 ± 0.0026
302.31 K, 48422 kPa, Liquid | 0.1015 ± 0.0031
302.37 K, 62973 kPa, Liquid | 0.1058 ± 0.0033
302.38 K, 36377 kPa, Liquid | 0.09716 ± 0.003
302.39 K, 42000 kPa, Liquid | 0.09898 ± 0.003
302.39 K, 65480 kPa, Liquid | 0.1069 ± 0.0065
302.4 K, 56441 kPa, Liquid | 0.104 ± 0.0033
302.41 K, 36234 kPa, Liquid | 0.09718 ± 0.003
302.41 K, 47190 kPa, Liquid | 0.1008 ± 0.0033
302.42 K, 48052 kPa, Liquid | 0.1012 ± 0.0072
302.44 K, 48420 kPa, Liquid | 0.1011 ± 0.0035
302.45 K, 25800 kPa, Liquid | 0.09349 ± 0.0032
302.47 K, 30544 kPa, Liquid | 0.0948 ± 0.0036
302.51 K, 20515 kPa, Liquid | 0.09108 ± 0.0034
302.51 K, 25497 kPa, Liquid | 0.09286 ± 0.0029
302.51 K, 36380 kPa, Liquid | 0.09677 ± 0.003
302.52 K, 41997 kPa, Liquid | 0.0988 ± 0.0038
302.53 K, 132 kPa, Gas | 0.0109 ± 0.00039
